This note sets out measurements from ChEMBL document CHEMBL1201862, “PubChem BioAssay data set” (2004).

Among the test systems are 786-0; A498; A549; CCRF-CEM; HCT-116; HCT-15; HOP-62; M14; MDA-MB-231; NCI-H522; NCI/ADR-RES; SF-268; SF-539; SK-MEL-28; SN12C; SNB-75; SW-620; U-251; UACC-257; MCF7.
What all share (assay): NCI-60 cell line screen, 48 h

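Exposure lasted 48 hours, with cells grown in 96-well plates and compounds tested at five concentrations. GI50 is the concentration that inhibits growth by half.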 Calls of active or inactive are those of the source. Rule as the data show it: active = GI50 up to about 1.1 µM and inactive = higher. Residues, ends and D or L forms follow the SMILES beside them. Groups on a side chain read outwards from the residue. *: point of attachment. Cbz = O=C(OCc1ccccc1)*; Boc = CC(C)(C)OC(=O)*

Regarding `CC1=NNC(=O)C1C1C=C(c2c[nH]c3ccccc23)OC1=O` (centres undefined), the GI50 is > 100 µM (inactive) in the experiment with 786-0; > 100 µM (inactive) in the experiment with A498; > 100 µM (inactive) in the experiment on A549; 59.6 µM (inactive) in the experiment with CCRF-CEM; > 100 µM (inactive) in the experiment with HCT-116; above 100 µM in the experiment on HCT-15. Besides, the GI50 in the experiment with HOP-62, in the experiment on M14, in the experiment on MDA-MB-231, in the experiment on NCI-H522, with NCI/ADR-RES and with SF-268 was > 100 µM (inactive) throughout. Besides, the GI50 in the experiment on SF-539, in the experiment on SK-MEL-28, in the experiment with SN12C, with SNB-75, in the experiment with SW-620 and with U-251 was > 100 µM (inactive) in each case. Further, the GI50 in the experiment on UACC-257 was > 100 µM (inactive).

On to `Nc1ncnc2c1ncn2C1C=CC(COS(N)(=O)=O)C1` (centres undefined), for which the GI50 is 18.5 µM (inactive) in the experiment with 786-0; 36.2 µM (inactive) in the experiment with A549; 18.4 µM (inactive) in the experiment on CCRF-CEM; 9.38 µM (inactive) with HCT-116; 9.27 µM with HCT-15; 16.8 µM (inactive) with HOP-62. For the same compound, the GI50 was 22.2 µM (inactive) with M14; 6.43 µM (inactive) with MCF7; 20.2 µM (inactive) with MDA-MB-231; 66.2 µM (inactive) in the experiment with NCI/ADR-RES; 33.7 µM (inactive) in the experiment with SF-268; 0.676 µM (active) in the experiment on SF-539. Further, the GI50 with SK-MEL-28 is 20.5 µM (inactive); in the experiment with SN12C, 8.2 µM (inactive); with SNB-75, 21.9 µM (inactive); with SW-620, 12.9 µM (inactive); in the experiment with U-251, 5.26 µM (inactive); in the experiment on UACC-257, 63.5 µM (inactive).

Turning to `O=CNNC(=O)Nc1cccc2ccccc12`, the GI50 in the experiment with 786-0 was > 100 µM (inactive); in the experiment on A549, > 100 µM (inactive); with CCRF-CEM it was > 100 µM (inactive); in the experiment with HCT-116 it was > 100 µM (inactive); with HCT-15, above 100 µM; in the experiment on HOP-62 it was > 100 µM (inactive). In addition, the GI50 in the experiment with M14, with MCF7, in the experiment on MDA-MB-231, with NCI/ADR-RES, in the experiment with SF-268 and in the experiment on SF-539 was > 100 µM (inactive) throughout. In addition, the GI50 in the experiment on SK-MEL-28, in the experiment with SN12C, in the experiment with SNB-75, with SW-620, in the experiment on U-251 and in the experiment with UACC-257 was > 100 µM (inactive) throughout.

`N/C1=C/C(=O)NC(=O)c2c(c3ccccc3oc2=O)C1`: the GI50 is > 100 µM (inactive) with 786-0; > 100 µM (inactive) with A498; > 100 µM (inactive) in the experiment with A549; > 100 µM (inactive) in the experiment on CCRF-CEM; > 100 µM (inactive) in the experiment on HCT-116; above 100 µM with HCT-15. In addition, the GI50 with HOP-62, with M14, with MDA-MB-231, in the experiment with NCI-H522, in the experiment with NCI/ADR-RES and in the experiment with SF-268 was > 100 µM (inactive) throughout. The GI50 in the experiment on SK-MEL-28, with SN12C, with SNB-75, with SW-620, in the experiment with U-251 and in the experiment with UACC-257 was > 100 µM (inactive) throughout.

Regarding `COc1nc(O)nc2c1C(c1ccc([N+](=O)[O-])cc1)c1c(OC)nc(O)nc1O2`, the GI50 in the experiment on 786-0 was > 100 µM (inactive); in the experiment with A498, > 100 µM (inactive); with A549, > 100 µM (inactive); with CCRF-CEM, > 100 µM (inactive); in the experiment on HCT-116, > 100 µM (inactive); with HCT-15 it was above 100 µM. The GI50 in the experiment with HOP-62, with M14, with MDA-MB-231, with NCI-H522, in the experiment with NCI/ADR-RES and with SF-268 was > 100 µM (inactive) throughout. Moreover, the GI50 with SK-MEL-28, in the experiment on SN12C, in the experiment with SW-620, in the experiment on U-251 and in the experiment with UACC-257 was > 100 µM (inactive) in each case.

With `CC[C@@]1(C)CCC2c3ccc(O)cc3CC[C@H]2C1C` (some centres undefined), the GI50 in the experiment on 786-0 was 16.2 µM (inactive); in the experiment with A498, 19.6 µM (inactive); in the experiment on A549 it was 17.9 µM (inactive); in the experiment on CCRF-CEM it was 16.5 µM (inactive); in the experiment with HCT-116, 17.7 µM (inactive); in the experiment with HCT-15, 16 µM. Also, the GI50 in the experiment with HOP-62 is 18.7 µM (inactive); with M14, 15.7 µM (inactive); in the experiment on MCF7 it was 15.1 µM (inactive); with NCI-H522, 19.3 µM (inactive); in the experiment with NCI/ADR-RES it was 18.8 µM (inactive); in the experiment with SF-268, 15.5 µM (inactive). For the same compound, the GI50 with SF-539 is 19.9 µM (inactive); in the experiment on SK-MEL-28, 17.8 µM (inactive); in the experiment with SN12C, 18.1 µM (inactive); in the experiment with SNB-75, 19.9 µM (inactive); in the experiment on SW-620, 17 µM (inactive); in the experiment with U-251, 17 µM (inactive). Further, the GI50 in the experiment on UACC-257 is 15.7 µM (inactive).

Consider `CC(C)(C)OC(=O)NC(CCCCNC(=O)CNC(=O)OCc1ccccc1)C(=O)NC(CCCCNC(=O)CNC(=O)OCc1ccccc1)C(=O)NC(CCCCNC(=O)CNC(=O)OCc1ccccc1)C(=O)NC(CCCCNC(=O)CNC(=O)OCc1ccccc1)C(=O)O` (centres undefined) (Boc-K([Gly-Cbz])K([Gly-Cbz])K([Gly-Cbz])K([Gly-Cbz])-OH; configuration not given here), for which the GI50 was > 100 µM (inactive) in the experiment with 786-0; > 100 µM (inactive) with A549; > 100 µM (inactive) in the experiment on CCRF-CEM; > 100 µM (inactive) with HCT-116; above 100 µM in the experiment with HCT-15; > 100 µM (inactive) in the experiment on HOP-62. The GI50 with M14, with MCF7, with MDA-MB-231, in the experiment on NCI-H522, in the experiment with SF-268 and with SK-MEL-28 was > 100 µM (inactive) throughout. Besides, the GI50 in the experiment with SN12C, in the experiment with SNB-75, in the experiment on SW-620, in the experiment on U-251 and in the experiment on UACC-257 was > 100 µM (inactive) in each case.

As for `CCc1cc2c(oc3cc(C)ccc32)c(=O)n1C`, the GI50 in the experiment on 786-0 was > 10 µM (inactive); with A549, > 10 µM (inactive); in the experiment on CCRF-CEM it was > 10 µM (inactive); in the experiment on HCT-116 it was > 10 µM (inactive); in the experiment on HCT-15, above 10 µM; in the experiment with M14, > 10 µM (inactive). Besides, the GI50 in the experiment with MCF7, with MDA-MB-231, in the experiment on NCI-H522, in the experiment on SF-268, in the experiment with SF-539 and with SN12C was > 10 µM (inactive) each time. Also, the GI50 with SNB-75, with SW-620, in the experiment on U-251 and in the experiment on UACC-257 was > 10 µM (inactive) in each case.

With `Cc1cc(N(CCC#N)CCC#N)ccc1/C=C(\NC(=O)/C=C/c1ccccc1)C(=O)N=[N+]=[N-]`, the GI50 was 37.5 µM (inactive) in the experiment with 786-0; > 100 µM (inactive) in the experiment on A498; > 100 µM (inactive) with A549; > 100 µM (inactive) in the experiment on CCRF-CEM; > 100 µM (inactive) in the experiment on HCT-116; above 100 µM with HCT-15. Further, the GI50 is 32.1 µM (inactive) with HOP-62; > 100 µM (inactive) in the experiment with M14; 30.4 µM (inactive) in the experiment on NCI-H522; 99.1 µM (inactive) in the experiment on SF-268; 52.5 µM (inactive) in the experiment with SF-539; > 100 µM (inactive) with SK-MEL-28. Also, the GI50 in the experiment on SN12C was > 100 µM (inactive); in the experiment with SNB-75, 23 µM (inactive); in the experiment on SW-620 it was > 100 µM (inactive); in the experiment on U-251 it was 43.1 µM (inactive); with UACC-257, > 100 µM (inactive).

With `COc1c(N2CCCCC2)c2c(=O)c3ccccc3oc2c2c3ccccc3n(C)c12`, the GI50 in the experiment on 786-0 was > 100 µM (inactive); in the experiment on A549 it was > 100 µM (inactive); in the experiment with CCRF-CEM, 64.3 µM (inactive); in the experiment with HCT-116, 53.1 µM (inactive); in the experiment with HCT-15, above 100 µM; with HOP-62, > 100 µM (inactive). Besides, the GI50 with M14 was > 100 µM (inactive); with MCF7, 29.7 µM (inactive); with MDA-MB-231 it was > 100 µM (inactive); in the experiment on NCI/ADR-RES, > 100 µM (inactive); in the experiment with SF-268, > 100 µM (inactive); with SF-539 it was > 100 µM (inactive). Also, the GI50 was > 100 µM (inactive) in the experiment with SK-MEL-28; 47.6 µM (inactive) in the experiment on SN12C; > 100 µM (inactive) in the experiment with SNB-75; > 100 µM (inactive) in the experiment with SW-620; > 100 µM (inactive) in the experiment with U-251; > 100 µM (inactive) in the experiment with UACC-257.

Turning to `COc1ccc(CN2CC(C)(C)C2=O)c(OC)c1`, the GI50 in the experiment on 786-0 is > 100 µM (inactive); in the experiment on A498 it was > 100 µM (inactive); in the experiment with A549, > 100 µM (inactive); with CCRF-CEM, > 100 µM (inactive); in the experiment with HCT-116, > 100 µM (inactive); with HCT-15 it was above 100 µM. The GI50 with HOP-62, in the experiment on M14, in the experiment on NCI-H522, with SF-268, in the experiment on SF-539 and in the experiment with SK-MEL-28 was > 100 µM (inactive) each time. Besides, the GI50 was > 100 µM (inactive) in the experiment with SN12C; 70.8 µM (inactive) in the experiment on SNB-75; > 100 µM (inactive) in the experiment on SW-620; > 100 µM (inactive) in the experiment on U-251; > 100 µM (inactive) in the experiment on UACC-257.
